Results published in PMC5484485, “In vitro and in vivo effects of kisspeptin antagonists p234, p271, p354, and p356 on GPR54 activation” (PLoS ONE, 2017).
Square brackets hold non-standard residues; d marks the D form. Ends that are not written are not given here.

Columns and labels:
[1] = target: T1, human GPR54 (Homo sapiens, UniProt Q969F8); experiment: Flow cytometric calcium flux assay, KP10-induced response after 15 min pre-incubation with antagonist; type: cell-based; parameters: host or cells: rat hematopoietic CHEM1 cells expressing endogenous Galpha15; details: 10^-8 M KP10; for difference in calcium response ratio between controls and antagonist: all concentrations 10^-13 to 10^-5 M, 15 min pre-incubation, P = 1.00
Method: In vitro analyses of the effects of kisspeptin and kisspeptin antagonists, were performed using HT[…] cells (rat hematopoietic CHEM1 cells expressing endogenous Gα15 and, stably expressing the human GPR54 receptor (Millipore BV, the Netherlands), CHEM1-GPR54. Cells were counted and suspended in HBSS+++ at a concentration of 5*10^6 cells/ml. To load the cells with the fluorescent dye ester they were incubated in HBSS+++ adjusted to a concentration of 2 μM Fluo-3 AM (Molecular Probes, Life Technologies, the Netherlands) for 1h at 37°C under agitation in the dark. After incubation, the cells were washed by adding HBSS+++ to a volume of 10 ml followed by centrifugation (5 min, 150 x g) to remove excess of Fluo-3AM. […] Thereafter the tube was removed briefly and 25 μl peptide (see below) was added, after which aspiration and analysis continued. For statistical analyses fluorescent data recorded during the time interval 30-60 seconds after initiation of measurement were used. […] We then assessed whether these antagonists could compete with KP10 for its receptor. […] For this purpose 25 μl quantities of the antagonists were added to 200 μl of Fluo-3 AM labelled cells (10^6 cells/ml) and incubated for 15 min. […] Peptides p354 and p356 were tested three times with both human and canine KP10; while peptides p234 and p271 were tested three times with human KP10 and once with canine KP10. To analyze the effects of different concentrations of the KP antagonists on the calcium response due to KP10 addition, the differences in fluorescence before and after KP10 were calculated (the calcium response). The calcium response ratios were calculated as the calcium response of the CHEM1-GPR54 cells pre-incubated with different concentrations of KP antagonist and the control (the calcium response of the cells without KP antagonist). These calcium response ratios were log transformed and used for further analysis by univariate analysis of variance, with the Dunnett's test as post hoc test. The calcium response ratios were set as dependent variables and the different concentrations of the antagonists and the two types of KP10 were used as fixed factors. The residuals were normally distributed.

[2] = target: T1, human GPR54; details: cited from earlier work
Excerpt: The development of kisspeptin antagonists contributed to an improved understanding of the role of kisspeptin in the reproductive system. Roseweir et al. developed several KP10 analogues and tested their effect on inositol phosphate (IP) release in Chinese hamster ovarian (CHO) cells stably expressing the human GPR54. […] The peptide antagonists are KP10 analogs with substitutions at several positions, which should result in good receptor binding affinity but reduced receptor activation. None of the peptides tested in the present study prevented or inhibited the KP10-stimulated calcium response and thus receptor activation.

[3] = target: T2, CHEM1-GPR54 cells (Homo sapiens, UniProt Q969F8); experiment: Preliminary calcium flux assay with adherent CHEM1-GPR54 cells (unpublished); type: cell-based; details: too few repeats for statistics
T2 construct: host or cells: rat hematopoietic CHEM1 cells expressing endogenous Galpha15

[4] = target: T1, human GPR54; experiment: Flow cytometric calcium flux assay, response to peptide alone (agonist / intrinsic activity); type: cell-based; parameters: host or cells: rat hematopoietic CHEM1 cells expressing endogenous Galpha15; details: for intrinsic calcium response: any tested concentration, 10^-13 to 10^-5 M, n = 3
Method: In vitro analyses of the effects of kisspeptin and kisspeptin antagonists, were performed using HT[…] cells (rat hematopoietic CHEM1 cells expressing endogenous Gα15 and, stably expressing the human GPR54 receptor (Millipore BV, the Netherlands), CHEM1-GPR54. Cells were counted and suspended in HBSS+++ at a concentration of 5*10^6 cells/ml. To load the cells with the fluorescent dye ester they were incubated in HBSS+++ adjusted to a concentration of 2 μM Fluo-3 AM (Molecular Probes, Life Technologies, the Netherlands) for 1h at 37°C under agitation in the dark. After incubation, the cells were washed by adding HBSS+++ to a volume of 10 ml followed by centrifugation (5 min, 150 x g) to remove excess of Fluo-3AM. […] Thereafter the tube was removed briefly and 25 μl peptide (see below) was added, after which aspiration and analysis continued. For statistical analyses fluorescent data recorded during the time interval 30-60 seconds after initiation of measurement were used. […] Experiments were performed 3 times. Representative flow cytometry results are depicted in Fig 1. […] We then assessed whether these antagonists could compete with KP10 for its receptor. […] For this purpose 25 μl quantities of the antagonists were added to 200 μl of Fluo-3 AM labelled cells (10^6 cells/ml) and incubated for 15 min. […] Peptides p354 and p356 were tested three times with both human and canine KP10; while peptides p234 and p271 were tested three times with human KP10 and once with canine KP10. […] A multivariate general linear model was set up to analyze differences in calcium response between the different concentrations, with Dunnett's test as a post hoc procedure for the antagonists and Bonferroni's test for the agonists.

[5] = test system: circulating LH / puberty; details: cited from earlier work
Method: The development of kisspeptin antagonists contributed to an improved understanding of the role of kisspeptin in the reproductive system. Roseweir et al. developed several KP10 analogues and tested their effect on inositol phosphate (IP) release in Chinese hamster ovarian (CHO) cells stably expressing the human GPR54. […] The kisspeptin antagonists were administered intravenously in a dose of 50 μg/kg/h, and had no effect on either the basal plasma LH concentration during the continuous administration or on the KP10-induced LH response. These findings are in line with a previous study in female dogs. […] Adult male rats received an intrape ...

[6] = test system: plasma LH concentration; experiment: Plasma LH in anestrous Beagle bitches during antagonist infusion and after cKP10 bolus; type: in vivo, dog; details: n = 6; for Median (and range) plasma LH, t = 30: 30 min of antagonist infusion 50 μg/kg/h iv; for Median (and range) plasma LH, t = 60: 60 min of antagonist infusion 50 μg/kg/h iv; for Median (and range) plasma LH, t = 120: 120 min of antagonist infusion 50 μg/kg/h iv, before cKP10; for median maximum increment in plasma LH concentration after cKP10 during antagonist administration / range of maximum increment in plasma LH concentration after cKP10 during antagonist administration: antagonist 50 μg/kg/h iv, cKP10 0.5 μg/kg iv; for Median (and range) plasma LH, t = 130 / t = 10*: 10 min after cKP10 0.5 μg/kg iv; for Median (and range) plasma LH, t = 140 / t = 20*: 20 min after cKP10 0.5 μg/kg iv; for Median (and range) plasma LH, t = 180 / t = 60*: 60 min after cKP10 0.5 μg/kg iv; for Median (and range) plasma LH, Basal: before antagonist infusion (mean of -40 and 0 min per dog); for effect on basal plasma LH concentration: continuous iv 50 μg/kg/h, anestrous bitches
Excerpt: Thirteen adult anestrous Beagle bitches were used for this study. Six dogs with a median age of 89 months (range 43–122 months) were used as control group, receiving cKP10 without an antagonist. Eight dogs with a median age of 52 months (range 31–116 months) were used for the antagonist experiments. One dog was first used in the control group and 12 months later for the antagonist experiments. Of the eight dogs used for the antagonist experiments, four received p271, p354, and p356. In two of the eight dogs both p354 and p356 were tested, while in the remaining two dogs only p271 was tested, in order to test every antagonist in 6 dogs. The time between testing of different kisspeptin antagonists was at least 5 days (range 5–15 days) to ensure that there were no peptide residues. Kisspeptin antagonist p234 per se was not tested in vivo because p271 is in fact p234 with a penetratin tag to enhance passage across the blood-brain barrier, as has been described for use with peripheral administration.
Kisspeptin antagonists (50 μg/kg/h) were administered continuously for three hours via a catheter in the cephalic vein. Two hours after the start of the infusion, a single bolus of cKP10 (0.5 μg/kg) was administered intravenously. Blood samples were collected from the jugular vein by venipuncture at -40 min and 0 min before the antagonist infusion, and then every 30 min for two hours. After the administration of cKP10, blood samples were collected at 10, 20, 40, and 60 min (i.e., 130, 140, 160, and 180 min after the start of the antagonist infusion).
As a control, KP stimulation tests (without the administration of a kisspeptin antagonist) were performed in six dogs. Blood samples were collected from the jugular vein by venipuncture at -40 min and 0 min before, and then at 10, 20, 40, and 60 min after administration of cKP10 (0.5 μg/kg). Plasma LH concentrations were measured in all blood samples.
Plasma LH concentrations were measured with a heterologous radioimmunoassay validated for the dog, as described previously. The intra- and interassay CVs for values above 0.5 μg/l were 2.3 and 10.5%, respectively, and the limit of quantitation was 0.3 μg/l.
In both groups of dogs (experimental and control), the basal plasma LH concentration was calculated for each dog as the mean of the values at –40 and 0 min before cKP10 or antagonist administration. All LH values that exceeded the mean of all basal samples plus 3 SD were attributed to pulsatile secretion and were treated as outliers and excluded from statistical analysis. Log transformation of plasma LH concentrations was used because data were not normally distributed. A linear mixed model was used to analyze differences in plasma LH concentrations before and after KP10, with or without a kisspeptin antagonist (group effects: p271, p354, p356, and controls), with Bonferroni correction. P<0.05 was considered significant.

[7] = test system: kisspeptin receptor; details: ref unpublished data; cited from earlier work
Method: The following peptides were tested for antagonistic properties on the kisspeptin receptor: p234 ((D-Ala)-Asn-Trp-Asn-Gly-Phe-Gly-(D-Trp)-Arg-Phe-NH2), p271 (Arg-Arg-Met-Lys-Trp-Lys-Lys-Tyr-(D-Ala)-Asn-Trp-Asn-Gly-Phe-Gly-(D-Trp)-Arg-Phe-NH2), p354 ((D-Ala)-Tyr-Asn-Phe-Asn-Gly-Phe-Gly-(D-Trp)-Arg-Phe-NH2), and p356 ((D-Ala)-Tyr-Asn-Trp-Asn-Gly-Phe-Gly-(D-Trp)-Lys-Phe-NH2). Peptide 354 and p356 are next generation analogs refining p234.

[8] = antagonist infusion 50 μg/kg/h iv

T1 sequence (Q969F8 whole entry): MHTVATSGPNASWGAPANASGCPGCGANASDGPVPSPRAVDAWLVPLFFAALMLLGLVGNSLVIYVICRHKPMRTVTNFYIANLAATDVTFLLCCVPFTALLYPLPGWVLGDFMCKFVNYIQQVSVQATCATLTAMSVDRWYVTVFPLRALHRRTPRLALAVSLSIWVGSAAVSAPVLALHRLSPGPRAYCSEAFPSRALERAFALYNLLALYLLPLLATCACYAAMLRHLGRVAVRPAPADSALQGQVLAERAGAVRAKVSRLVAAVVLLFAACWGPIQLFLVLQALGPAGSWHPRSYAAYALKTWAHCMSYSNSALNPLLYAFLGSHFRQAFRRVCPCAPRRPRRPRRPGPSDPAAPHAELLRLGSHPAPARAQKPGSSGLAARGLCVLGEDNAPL
T2 sequence (Q969F8 whole entry): as above

[dA]NWNGFG[dW]RF-NH2 [p234, kisspeptin antagonist, KP10 analog]
difference in calcium response ratio between controls and antagonist [1]: not significant
inhibitory effect on IP release in vitro, rank among KP10 analogues ([2]; CHO cells stably expressing human GPR54): most potent inhibitory effect
inhibition of KP10-induced inositol phosphate (IP) production ([2]; CHO cells that express GPR54): 93%
inhibition of KP10-induced calcium response, adherent cells [3]: could not be inhibited
intrinsic calcium response [4]: no significant intrinsic calcium response
effect of antagonist alone on basal plasma LH ([5]; intact rats and mice): did not lower the basal plasma LH concentration
effect on circulating LH when co-administrated with KP10 ([5]; intracerebroventricular): prevented an increase in the circulating LH concentration
effect on vaginal opening (indicator of puberty) ([5]; rats, intracerebroventricular): delayed vaginal opening

[dA]YNFNGFG[dW]RF-NH2 [p354]
difference in calcium response ratio between controls and antagonist [1]: not significant
Median (and range) plasma LH, t = 30 [6]: 3.7 (2.1–13.1) μg/L
Median (and range) plasma LH, t = 60 [6]: 3.2 (2.2–7.2) μg/L
Median (and range) plasma LH, t = 120 [6]: 5.2 (2.6–15.7) μg/L
median maximum increment in plasma LH concentration after cKP10 during antagonist administration [6]: 8.1 µg/L
range of maximum increment in plasma LH concentration after cKP10 during antagonist administration [6]: 5.0 to 12.5 µg/L
Median (and range) plasma LH, t = 130 / t = 10* [6, 8]: 13.5 (8.4–20.3) μg/L
Median (and range) plasma LH, t = 140 / t = 20* [6, 8]: 10.0 (5.5–13.0) μg/L
Median (and range) plasma LH, t = 160 / t = 40* ([6]; antagonist infusion 50 μg/kg/h iv, 40 min after cKP10 0.5 μg/kg iv): 6.4 (4.7–9.1) μg/L
Median (and range) plasma LH, t = 180 / t = 60* [6, 8]: 4.7 (3.7–9.9) μg/L
Median (and range) plasma LH, Basal [6]: 4.2 (2.8–6.7) μg/L
effect on basal plasma LH concentration [6]: did not cause significant alterations
binding and inhibition of kisspeptin action on inositol generation, potency range [7]: nanomolar range
intrinsic calcium response [4]: no significant intrinsic calcium response

[dA]YNWNGFG[dW]KF-NH2 [p356]
calcium response ratio versus control at highest concentration ([1]; 10^-5 M, P<0.001, ascribed to intrinsic response, not antagonism): smaller than the negative control
Median (and range) plasma LH, t = 30 [6]: 4.1 (2.4–12.8) μg/L
Median (and range) plasma LH, t = 60 [6]: 3.9 (2.2–7.7) μg/L
Median (and range) plasma LH, t = 90 ([6]; 90 min of antagonist infusion 50 μg/kg/h iv): 4.5 (2.8–6.7) μg/L
Median (and range) plasma LH, t = 120 [6]: 4.9 (2.1–10.4) μg/L
median maximum increment in plasma LH concentration after cKP10 during antagonist administration [6]: 8.1 µg/L
range of maximum increment in plasma LH concentration after cKP10 during antagonist administration [6]: 6.3 to 18.3 µg/L
Median (and range) plasma LH, t = 130 / t = 10* [6, 8]: 12.8 (9.1–23.1) μg/L
Median (and range) plasma LH, t = 140 / t = 20* [6, 8]: 8.7 (7.1–13.4) μg/L
Median (and range) plasma LH, t = 180 / t = 60* [6, 8]: 4.7 (3.6–12.8) μg/L
Median (and range) plasma LH, Basal [6]: 4.3 (2.8–6.0) μg/L
effect on basal plasma LH concentration [6]: did not cause significant alterations
binding and inhibition of kisspeptin action on inositol generation, potency range [7]: nanomolar range
intrinsic calcium response at highest concentration ([4]; 10^-5 M, P = 0.001): clear calcium response
pharmacological character on CHEM1-GPR54 cells ([4]; authors' conclusion): partial agonist
